Measurements from ChEMBL document CHEMBL5604062, “ASAP - ZIKV NS2B-NS3 protease fluorescence dose response” (2024).
Where “and” joins values, the source holds several entries; their conditions need not be identical. Equal entries are not always repeated.

target: Nonstructural protein 3 (Zika virus, UniProt A0A024AXB9); experiment: Functional biochemical assay to identify treatments for viral infectious disease that targets Zika NS2B-NS3 protease. Utilizing a direct enzyme activity measurement method, reading the fluorescence intensity is used to characterize the relative potency of inhibitors as IC50.; design: species or system PRVABC59
Sequence (A0A024AXB9 whole entry): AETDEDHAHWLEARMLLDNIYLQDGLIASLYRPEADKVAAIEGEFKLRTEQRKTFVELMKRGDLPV

Row | Compound | IC50
1 | O=C(N[C@@H](C(=O)NC1CNC1)c1ccc(OCc2ccccc2)cc1)OCc1ccccc1 | > 99.5 µM
2 | CC1(NC(=O)c2cccc3c2CC(=O)N3)CCOCC1 | > 25 µM
3 | Cn1c(Sc2nc3ccccc3o2)nc2sccc2c1=O | > 99.5 µM
4 | Cc1onc(C(=O)Nc2cccc(CN)c2)c1COc1cccc(F)c1 | > 99.5 µM
5 | CCn1c(=O)c(N2CC[C@@H](CO)C2)nc2ccc(C(=O)O)cc21 | > 99.5 µM
6 | O=C(Nc1ccc2c(c1)CNC2)c1cc(Cl)cc(N2CCCC2)c1 | 0.114 µM
7 | Cn1cnc2nc(Cl)cc(C(=O)Nc3ccc4c(c3)CNC4)c21 | 16.2 µM
8 | O=C(O)c1cc(Cl)ccc1NS(=O)(=O)c1ccc(OCc2cncnc2)cc1 | > 99.5 µM
9 | N#CCCNC(=O)[C@H](Nc1ccc2c(c1)CNC2)c1cc(Cl)cc(C2CC2)c1 | 0.052 µM and 0.037 µM
10 | Cn1nc2c(c1NC(=O)c1cc(Cl)cc(NC(=O)OCc3ccccc3)c1)CCNC2 | > 99.5 µM
11 | COC(=O)C1(S(=O)(=O)N[C@H](C(=O)Nc2cccc(CN)c2)c2ccc(OCc3ccccc3)cc2)CCC1 | 98.1 µM
12 | Cc1c(NC(=O)OCc2ccccc2)cc(C(F)(F)F)cc1C(=O)Nc1cccc(CN)c1 | 60.4 µM
13 | O=C(O)c1cc2cc(-c3nccc(C(F)F)n3)ccc2[nH]1 | > 99.5 µM
14 | O=C(O)c1cc(Cl)ccc1S(=O)(=O)Nc1ccc(N2CCCCC2)c(F)c1 | > 99.5 µM
15 | O=C(Nc1ccc2c(c1)CNC2)c1cc(F)cc(C=C2CCS(=O)(=O)CC2)c1 | 0.645 µM
16 | O=C(Nc1cc(Cl)cc([C@H]2C[C@@H]2c2ccc3c(c2)CNC3)c1)OCc1ccccc1 | 22.8 µM
17 | NCc1cc(CCc2cc(Cl)cc(NC(=O)OCc3ccccc3)c2)cc(C(=O)O)c1 | > 99.5 µM
18 | CCS(=O)(=O)c1ccc(Cl)cc1C(=O)Nc1cccc(CN)c1 | 82.1 µM
19 | O=C(O)c1cc(Cl)ccc1S(=O)(=O)N[C@H]1CC[C@@H](Oc2cnccn2)CC1 | > 99.5 µM
20 | O=c1[nH]ncn1C1CCN(Cc2c[nH]c3ccccc23)CC1 | 34.1 µM
21 | O=C(O)c1ccc(Cc2c[nH]c3ccc(Cl)cc23)cc1 | > 99.5 µM
22 | O=C(Nc1ccc2c(c1)CNC2)C1CCCCC1 | > 99.5 µM
23 | O=C(Nc1cc(Cl)cc(C(=O)Nc2cccc(CO)c2)c1)OCc1ccccc1 | > 99.5 µM
24 | CCOC(=O)c1csc([C@H]2CCCN2C(=O)Nc2ccc3c(c2)CNC3)n1 | > 25 µM
25 | C[C@H]1CC[C@@](Cc2nc3ccccc3[nH]2)(C(=O)Nc2cccc(CN)c2)CC1 | > 99.5 µM
26 | O=C1C[C@H]2CN(C(=O)Nc3ccc4c(c3)CNC4)CC[C@H]2N1 | > 25 µM

Row | Compound | IC50
27 | NCc1cccc(NC(=O)[C@@H](NC(=O)OCc2ccccc2)C2CCN(S(=O)(=O)C3CCCC3)CC2)c1 | > 99.5 µM
28 | Clc1cc([C@H](C#Cc2ccccc2)Nc2ccc3c(c2)CNC3)c2cn[nH]c2c1 | 1.03 µM
29 | c1ccc(-c2ncc(CN3CCC(c4nc5ccccc5s4)CC3)[nH]2)cc1 | > 99.5 µM
30 | CCc1cc(C(=O)Nc2cccc(-c3nnn[nH]3)c2)ccc1Cl | > 99.5 µM
31 | CC(C)OC(=O)Nc1cc(Cl)cc(C(=O)Nc2cccc(CN)c2)c1 | 2.46 µM
32 | CC(C)c1nn(C)cc1-c1cc(F)cc(C(=O)Nc2ccc3c(c2)CNC3)c1 | 0.632 µM
33 | O=C(O)c1cc(Cl)ccc1NS(=O)(=O)c1ccc(OCc2nnnn2C2CCC2)cc1 | > 99.5 µM
34 | COC(=O)[C@@H]1CC2(CC[C@@H]1NS(=O)(=O)c1ccc(Oc3ccccc3Cl)cc1)CC2 | > 99.5 µM
35 | Cc1nocc1S(=O)(=O)N[C@H](C(=O)Nc1cccc(CN)c1)c1ccc(OCc2ccccc2)cc1 | > 99.5 µM
36 | NC(=O)c1[nH]c2ccc(Br)cc2c1Cc1ccc(-c2nnn[nH]2)cc1 | > 99.5 µM
37 | Cc1c(C(=O)Nc2cc(-c3cccnc3)ccn2)c2ccccc2n1C | > 25 µM
38 | O=C(Nc1ccc2c(c1)CNC2)c1cc(Cl)cc2cc[nH]c12 | 0.07 µM and 0.065 µM
39 | COc1cc(COc2cncc3ccccc23)nc(N2CCNCC2)n1 | > 99.5 µM
40 | Cc1cc(NS(=O)(=O)c2ccc(Cl)cc2C(=O)O)nn1Cc1ccccc1 | > 99.5 µM
41 | CS(=O)(=O)NC(=O)c1cc(Cl)ccc1NS(=O)(=O)c1ccc(Oc2ccccc2Cl)cc1 | 36.2 µM
42 | CCc1cc(COc2ccc(S(=O)(=O)Nc3ccc(Cl)cc3C(=O)O)cc2)no1 | > 99.5 µM
43 | Cn1ccc(-c2n[nH]cc2CN2CCC(c3nc4ccccc4s3)CC2)n1 | > 99.5 µM
44 | Cc1c(C(=O)Nc2cc(CCCN)ccn2)cnn1C1CC1 | > 25 µM
45 | Cc1ccc(C(=O)Nc2cccc(CN)c2)cc1NC(=O)Cc1ccncc1 | > 99.5 µM
46 | NCc1cccc(NC(=O)c2cc(Cl)cc(C(N)=O)c2)c1 | 1.35 µM
47 | O=C(Nc1cc(Cl)cc(C(=O)Nc2ccc3c(c2)CNCCO3)c1)OCc1ccccc1 | 7.69 µM
48 | Cc1c(C(=O)Nc2cc(C#N)cn(C)c2=O)cc(C2CC2)n1C | > 25 µM
49 | CCn1c(=O)c(N2CCC[C@H]2C(=O)NC2CC2)nc2ccccc21 | > 99.5 µM
50 | O=C(Nc1cc(-c2cccnc2)ccn1)c1ccc(C2CC2)cc1 | > 25 µM
51 | O=C(O)c1cc(Cl)ccc1S(=O)(=O)N[C@H]1CCn2c(nnc2C(F)(F)F)C1 | > 99.5 µM
52 | CCN(C(=O)Cn1ccnc(N2CC[C@H](CO)C2)c1=O)C(C)C | > 99.5 µM

Row | Compound | IC50
53 | CN(C)Cc1ccc(NC(=O)c2cc(Cl)cc(NC(=O)OCc3ccccc3)c2)cc1 | 70.3 µM
54 | O=C1Cc2c(cccc2C(=O)Nc2cc([C@H]3CCOC3)ccn2)N1 | > 25 µM
55 | CNc1c(-c2cc(Cl)cc(C3CC3)c2)nc2cc(C(=O)O)ccn12 | > 99.5 µM
56 | COC(=O)c1csc2cc(C(=O)N3CCCc4cc(CCN)ccc43)[nH]c12 | > 99.5 µM
57 | Cc1nnc(CN2CCC([C@H](NC(=O)OCc3ccccc3)C(=O)Nc3cccc(CN)c3)CC2)s1 | > 99.5 µM
58 | COC[C@H](NC(=O)c1cc(Cl)cc(NC(=O)OCc2ccccc2)c1)c1nnn[nH]1 | > 99.5 µM
59 | OCC#C[C@H](Nc1ccc(-c2nnn[nH]2)cc1)c1cc(Cl)cc(C2CC2)c1 | > 99.5 µM
60 | CCCCCC(=O)N[C@H](C(=O)N1CCC(CN)CC1)c1ccc(OCc2ccccc2)cc1 | > 99.5 µM
61 | CC(C)c1cc(-c2ccc3[nH]c(C(=O)O)cc3c2)cc(S(N)(=O)=O)c1 | > 99.5 µM
62 | Cn1cc(CCc2nc3c(C(=O)Nc4ccc5c(c4)CNC5)cc(Cl)cc3[nH]2)cn1 | 0.156 µM
63 | O=C1Cc2c(cccc2C(=O)Nc2ccc3c(c2)CNCCC3)N1 | 0.569 µM
64 | NCc1cccc(NC(=O)[C@@H](NC(=O)OCc2ccccc2)c2ccc(Br)cc2)c1 | 53.6 µM and 54.4 µM
65 | O=C1Cc2c(cccc2C(=O)NC2CC3(CCOCC3)C2)N1 | > 25 µM
66 | CCn1c(=O)c(N2C[C@H]3OCCN(C(C)=O)[C@H]3C2)nc2ccccc21 | > 99.5 µM
67 | NC12CCC(CNC(=O)c3cc(Cl)cc(NC(=O)OCc4ccccc4)c3)(CC1)OC2 | 33.1 µM
68 | O=C(Nc1cccc(-c2nnn[nH]2)c1)c1cc(Cl)cc(C2CC2)c1 | > 99.5 µM
69 | CS(=O)(=O)c1cc(CN)cc(NC(=O)c2cc(Cl)cc(NC(=O)OCc3ccccc3)c2)c1 | 23.3 µM
70 | C=CC[C@H]1NCc2cc(N[C@H](C(=O)NC(C)C)c3cc(Cl)cc4[nH]ncc34)ccc21 | 0.994 µM
71 | Cc1c(C(=O)Nc2cccc(-c3cccnc3)c2)cc(C2CC2)n1C | > 25 µM
72 | NCc1cccc(N[C@H](C#CCO)c2cc(Cl)cc(NC(=O)OCc3ccccc3)c2)c1 | 17.7 µM
73 | O=C(Nc1ccc(Cl)cc1C(=O)Nc1cccc(C2CCNCC2)c1)OCc1ccccc1 | > 99.5 µM
74 | O=C(Nc1cccc(-c2nnn[nH]2)c1)c1cc(Cl)cc2[nH]ncc12 | > 99.5 µM
75 | O=C(O)c1cc(Cl)ccc1S(=O)(=O)Nc1ccc(F)c(N2CCNC2=O)c1 | > 99.5 µM
76 | CC(C)(C)NS(=O)(=O)c1cccc(C(=O)Nc2cccc(CN)c2)c1 | > 99.5 µM
